Test results from paper PMC6979384, “Characterization of the plant homeodomain (PHD) reader family for their histone tail interactions” (Epigenetics & Chromatin, 2020).

What was measured:
Assay in all cases: Histone peptide microarray
Assay type in all cases: binding, human
Details in all cases: histone peptide array, arrays performed twice, n of 4
[1] = system: AIRE (PP)
Summary of the method: (§1)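 Recombinant GST-PHD protein at 0.5 μM; 293-member modified histone peptide array; signals averaged from four repeats ± SD.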

[2] = system: BAZ2B
Summary of the method: as §1

[3] = system: BPTF (PB)
Summary of the method: as §1

[4] = system: CHD4 (PPCC)
Summary of the method: as §1

[5] = system: CHD5 (PCC)
Summary of the method: as §1

[6] = system: CHD5 (PPCC)
Summary of the method: as §1

[7] = system: DIDO1
Summary of the method: as §1

[8] = system: DPF2 (PPC2W2)
Summary of the method: as §1

[9] = system: ING1
Summary of the method: as §1

[10] = system: ING2
Summary of the method: as §1

[11] = system: ING3
Summary of the method: as §1

[12] = system: ING4
Summary of the method: as §1

[13] = system: ING5
Summary of the method: as §1

[14] = system: KDM4C (TTP)
Summary of the method: as §1

[15] = system: KDM5A (1)
Summary of the method: as §1

[16] = system: KDM5A (3)
Summary of the method: as §1

[17] = system: KDM5B (1)
Summary of the method: as §1

[18] = system: KDM5B (3)
Summary of the method: as §1

[19] = system: KDM7A
Summary of the method: as §1

[20] = system: MLL5
Summary of the method: as §1

[21] = system: MORC3 (CW)
Summary of the method: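 A peptide microarray holding 293 synthetic histone peptides with individual or combinatorial modifications was probed with each GST-PHD protein at 0.5 μM. Values represent mean intensity (±SD) from four replicates.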

[22] = system: PHF13
Summary of the method: as §1

[23] = system: PHF21A
Summary of the method: as §1

[24] = system: PHF23
Summary of the method: as §1

[25] = system: PHF2
Summary of the method: as §1

[26] = system: PHF8
Summary of the method: as §1

[27] = system: PHRF1 (RP)
Summary of the method: as §1

[28] = system: RAG2
Summary of the method: as §1

[29] = system: SP140L
Summary of the method: as §1

[30] = system: TAF3
Summary of the method: as §1

[31] = system: TRIM66 (PB)
Summary of the method: as §1

[32] = GST-tagged BPTF (PB = PHD + Bromodomain)
[33] = GST-tagged CHD4 (PPCC = Dual PHD + Dual Chromodomain)
[34] = GST-tagged CHD5 (PCC = PHD + Dual Chromodomain)
[35] = GST-tagged CHD5 (PPCC = Dual PHD + Dual Chromodomain)
[36] = GST-tagged DPF2 (PPC2W2 = Dual PHD + C2W2-type Zn-finger)
[37] = GST-tagged KDM4C (TTP = Tandem Tudor domain + PHD)
[38] = GST-tagged MORC3 (CW = CW-type Zn-finger)
[39] = GST-tagged TRIM66 (PB = PHD + Bromodomain)
[40] = GST-tagged reader, PB = PHD + Bromodomain
[41] = GST-tagged reader, PPCC = Dual PHD + Dual Chromodomain

Substance: H4 (11-27): H4 11-27
- Array Heatmap signal, AIRE (PP) ([1]; GST-tagged AIRE (PP)): 0.4611
- Array Heatmap signal, BAZ2B ([2]; GST-tagged BAZ2B): 0.4866
- Array Heatmap signal, BPTF (PB) [3, 32]: 0.3518
- Array Heatmap signal, CHD4 (PPCC) [4, 33]: 0.6032
- Array Heatmap signal, CHD5 (PCC) [5, 34]: 0.8335
- Array Heatmap signal, CHD5 (PPCC) [6, 35]: 0.5646
- Array Heatmap signal, DIDO1 ([7]; GST-tagged DIDO1): 0.7393
- Array Heatmap signal, DPF2 (PPC2W2) [8, 36]: 0.705
- Array Heatmap signal, ING1 ([9]; GST-tagged ING1): 0.5543
- Array Heatmap signal, ING2 ([10]; GST-tagged ING2): 0.6025
- Array Heatmap signal, ING3 ([11]; GST-tagged ING3): 0.5001
- Array Heatmap signal, ING4 ([12]; GST-tagged ING4): 0.4682
- Array Heatmap signal, ING5 ([13]; GST-tagged ING5): 0.3644
- Array Heatmap signal, KDM4C (TTP) [14, 37]: 0.4895
- Array Heatmap signal, KDM5A (1) ([15]; GST-tagged KDM5A (1)): 0.4724
- Array Heatmap signal, KDM5A (3) ([16]; GST-tagged KDM5A (3)): 0.4231
- Array Heatmap signal, KDM5B (1) ([17]; GST-tagged KDM5B (1)): 0.652
- Array Heatmap signal, KDM5B (3) ([18]; GST-tagged KDM5B (3)): 0.4786
- Array Heatmap signal, KDM7A ([19]; GST-tagged KDM7A): 0.3743
- Array Heatmap signal, MLL5 ([20]; GST-tagged MLL5): 0.5751
- Array Heatmap signal, MORC3 (CW) [21, 38]: 0.3632
- Array Heatmap signal, PHF13 ([22]; GST-tagged PHF13): 0.6301
- Array Heatmap signal, PHF21A ([23]; GST-tagged PHF21A): 0.4899
- Array Heatmap signal, PHF23 ([24]; GST-tagged PHF23): 0.5647
- Array Heatmap signal, PHF2 ([25]; GST-tagged PHF2): 0.5451
- Array Heatmap signal, PHF8 ([26]; GST-tagged PHF8): 0.3468
- Array Heatmap signal, PHRF1 (RP) ([27]; GST-tagged PHRF1 (RP)): 0.4565
- Array Heatmap signal, RAG2 ([28]; GST-tagged RAG2): 0.2544
- Array Heatmap signal, SP140L ([29]; GST-tagged SP140L): 0.3427
- Array Heatmap signal, TAF3 ([30]; GST-tagged TAF3): 0.2827
- Array Heatmap signal, TRIM66 (PB) [31, 39]: 0.6367

Substance: H4K5K8but (1-23): H4 1-23
- Array Heatmap signal, AIRE (PP) ([1]; GST-tagged reader): 0.5575
- Array Heatmap signal, BAZ2B ([2]; GST-tagged reader): 0.52
- Array Heatmap signal, BPTF (PB) [3, 40]: 0.3688
- Array Heatmap signal, CHD4 (PPCC) [4, 41]: 0.6049
- Array Heatmap signal, CHD5 (PCC) ([5]; GST-tagged reader, PCC = PHD + Dual Chromodomain): 0.8285
- Array Heatmap signal, CHD5 (PPCC) [6, 41]: 0.592
- Array Heatmap signal, DIDO1 ([7]; GST-tagged reader): 0.6112
- Array Heatmap signal, DPF2 (PPC2W2) ([8]; GST-tagged reader, PPC2W2 = Dual PHD + C2W2-type Zn-finger): 0.658
- Array Heatmap signal, ING1 ([9]; GST-tagged reader): 0.5231
- Array Heatmap signal, ING2 ([10]; GST-tagged reader): 0.5955
- Array Heatmap signal, ING3 ([11]; GST-tagged reader): 0.4809
- Array Heatmap signal, ING4 ([12]; GST-tagged reader): 0.4968
- Array Heatmap signal, ING5 ([13]; GST-tagged reader): 0.3968
- Array Heatmap signal, KDM4C (TTP) ([14]; GST-tagged reader, TTP = Tandem Tudor domain + PHD): 0.558
- Array Heatmap signal, KDM5A (1) ([15]; GST-tagged reader): 0.515
- Array Heatmap signal, KDM5A (3) ([16]; GST-tagged reader): 0.457
- Array Heatmap signal, KDM5B (1) ([17]; GST-tagged reader): 0.7062
- Array Heatmap signal, KDM5B (3) ([18]; GST-tagged reader): 0.5218
- Array Heatmap signal, KDM7A ([19]; GST-tagged reader): 0.4497
- Array Heatmap signal, MLL5 ([20]; GST-tagged reader): 0.5399
- Array Heatmap signal, MORC3 (CW) ([21]; GST-tagged reader, CW = CW-type Zn-finger): 0.3933
- Array Heatmap signal, PHF13 ([22]; GST-tagged reader): 0.6376
- Array Heatmap signal, PHF21A ([23]; GST-tagged reader): 0.5071
- Array Heatmap signal, PHF23 ([24]; GST-tagged reader): 0.5226
- Array Heatmap signal, PHF2 ([25]; GST-tagged reader): 0.4396
- Array Heatmap signal, PHF8 ([26]; GST-tagged reader): 0.4044
- Array Heatmap signal, PHRF1 (RP) ([27]; GST-tagged reader): 0.4216
- Array Heatmap signal, RAG2 ([28]; GST-tagged reader): 0.2516
- Array Heatmap signal, SP140L ([29]; GST-tagged reader): 0.399
- Array Heatmap signal, TAF3 ([30]; GST-tagged reader): 0.2895
- Array Heatmap signal, TRIM66 (PB) [31, 40]: 0.5587

Substance: H4K5ac + K8ac + K12ac + K16ac: H4 1-23
- Array Heatmap signal, AIRE (PP) ([1]; GST-tagged AIRE (PP)): 0.5646
- Array Heatmap signal, BAZ2B ([2]; GST-tagged BAZ2B): 0.5369
- Array Heatmap signal, BPTF (PB) [3, 32]: 0.4178
- Array Heatmap signal, CHD4 (PPCC) [4, 33]: 0.5585
- Array Heatmap signal, CHD5 (PCC) [5, 34]: 0.8346
- Array Heatmap signal, CHD5 (PPCC) [6, 35]: 0.5534
- Array Heatmap signal, DIDO1 ([7]; GST-tagged DIDO1): 0.6106
- Array Heatmap signal, DPF2 (PPC2W2) [8, 36]: 0.6508
- Array Heatmap signal, ING1 ([9]; GST-tagged ING1): 0.4878
- Array Heatmap signal, ING2 ([10]; GST-tagged ING2): 0.572
- Array Heatmap signal, ING3 ([11]; GST-tagged ING3): 0.4391
- Array Heatmap signal, ING4 ([12]; GST-tagged ING4): 0.4555
- Array Heatmap signal, ING5 ([13]; GST-tagged ING5): 0.371
- Array Heatmap signal, KDM4C (TTP) [14, 37]: 0.5368
- Array Heatmap signal, KDM5A (1) ([15]; GST-tagged KDM5A (1)): 0.4894
- Array Heatmap signal, KDM5A (3) ([16]; GST-tagged KDM5A (3)): 0.4106
- Array Heatmap signal, KDM5B (1) ([17]; GST-tagged KDM5B (1)): 0.7197
- Array Heatmap signal, KDM5B (3) ([18]; GST-tagged KDM5B (3)): 0.5025
- Array Heatmap signal, KDM7A ([19]; GST-tagged KDM7A): 0.4726
- Array Heatmap signal, MLL5 ([20]; GST-tagged MLL5): 0.5322
- Array Heatmap signal, MORC3 (CW) [21, 38]: 0.3746
- Array Heatmap signal, PHF13 ([22]; GST-tagged PHF13): 0.598
- Array Heatmap signal, PHF21A ([23]; GST-tagged PHF21A): 0.4657
- Array Heatmap signal, PHF23 ([24]; GST-tagged PHF23): 0.4802
- Array Heatmap signal, PHF2 ([25]; GST-tagged PHF2): 0.443
- Array Heatmap signal, PHF8 ([26]; GST-tagged PHF8): 0.3604
- Array Heatmap signal, PHRF1 (RP) ([27]; GST-tagged PHRF1 (RP)): 0.436
- Array Heatmap signal, RAG2 ([28]; GST-tagged RAG2): 0.2398
- Array Heatmap signal, SP140L ([29]; GST-tagged SP140L): 0.3494
- Array Heatmap signal, TAF3 ([30]; GST-tagged TAF3): 0.2729
- Array Heatmap signal, TRIM66 (PB) [31, 39]: 0.6818
